“And” between values parts separate entries of the source, which are not always exact repeats. Identical values can stand only once. The source made the active and inactive calls. The rule behind the calls is not given here.
biological target: Perilipin-5 (Homo sapiens) + 1-acylglycerol-3-phosphate O-acyltransferase ABHD5 (Homo sapiens) (UniProt Q00G26+Q8WTS1); experiment: blockers of ABHD5 binding to perilipin-5 – cell lysate, luminescence, proteins expressed in HEK293T, dose response (AID 651733); settings: ABHD5-PLIN5 interaction;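 note: split Gaussia princeps luciferase complementation between ABHD5 and MLDP fusion proteins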
Sequence (Q00G26 whole entry, looked up, the tested form may be a part): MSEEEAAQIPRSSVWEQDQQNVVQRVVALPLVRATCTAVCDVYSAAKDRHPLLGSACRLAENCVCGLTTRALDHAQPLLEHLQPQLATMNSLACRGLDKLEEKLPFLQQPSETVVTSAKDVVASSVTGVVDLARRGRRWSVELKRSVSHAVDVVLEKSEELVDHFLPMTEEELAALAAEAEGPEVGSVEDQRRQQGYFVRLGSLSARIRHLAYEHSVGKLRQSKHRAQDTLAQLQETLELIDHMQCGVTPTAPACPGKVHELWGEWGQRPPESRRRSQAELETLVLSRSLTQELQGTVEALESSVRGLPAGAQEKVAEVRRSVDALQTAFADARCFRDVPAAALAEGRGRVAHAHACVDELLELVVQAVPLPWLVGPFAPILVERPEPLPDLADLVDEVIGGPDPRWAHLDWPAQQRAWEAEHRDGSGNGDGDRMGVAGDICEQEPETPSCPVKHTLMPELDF
Sequence (Q8WTS1 whole entry, looked up, the tested form may be a part): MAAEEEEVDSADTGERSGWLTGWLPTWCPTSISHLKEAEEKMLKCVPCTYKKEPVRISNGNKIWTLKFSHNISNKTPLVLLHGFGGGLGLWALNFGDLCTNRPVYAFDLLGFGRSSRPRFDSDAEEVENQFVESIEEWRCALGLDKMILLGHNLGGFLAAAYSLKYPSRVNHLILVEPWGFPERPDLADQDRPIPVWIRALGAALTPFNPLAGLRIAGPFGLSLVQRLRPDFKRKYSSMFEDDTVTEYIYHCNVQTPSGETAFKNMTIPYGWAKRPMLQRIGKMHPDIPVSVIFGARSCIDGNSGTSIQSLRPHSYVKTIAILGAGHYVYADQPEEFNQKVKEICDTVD

Structure (SMILES)	IC50
COC/C=C/C1=CC2=CC(=O)C(C)(OC(=O)C3CCCC3)C(=O)C2=CO1 (centres undefined)	3.88 µM
CC(C)(C)NC(=O)C(c1ccc(-c2ccccc2)cc1)n1c(=O)c(-c2ccco2)nc2ccccc21 (centres undefined)	2.56 µM
N#Cc1ncc(Cc2ccccc2)nc1C#N	inactive
CC1(C)C2CCC(CN=C(N)CSS(=O)(=O)O)C1C2 (centres undefined)	4.64 µM
O=C(/C=C/c1ccc2c(c1)OCCCO2)c1ccccc1O	5.14 µM
Cc1nc2c(o1)CCc1ccccc1C2N1CCN(C)CC1 (centres undefined)	4.44 µM
CCOc1cc(N)c(Cl)cc1C(=O)NCC1CN(Cc2ccc(F)cc2)CCO1 (centres undefined)	1.93 µM
CC(=O)Cc1cc(O)c2ccccc2c1OC(=O)c1ccc(Br)cc1	4.1 µM
CC(=O)Oc1c(Cl)cc(N(C(C)=O)S(=O)(=O)c2ccccc2)c2ccccc12	7.06 µM
CC(C)(C)NC(=O)C(c1ccccc1)n1c(=O)c(-c2ccco2)nc2ccccc21 (centres undefined)	3.62 µM
NC(=O)CCN1CCN(CCOC2Cc3cc(Cl)ccc3Sc3ccccc32)CC1 (centres undefined)	inactive
O=S(=O)(NC1=NCCCCC1)c1ccc2sc(NS(=O)(=O)c3ccc4ccccc4c3)nc2c1	inactive
Cc1cccc(C)c1NC(=O)C(c1ccc(C(F)(F)F)cc1)n1c(=O)c(-c2ccco2)nc2ccccc21 (centres undefined)	3.73 µM
O=C(Nc1ccc2c(c1)OCCO2)C(c1ccccc1F)n1c(=O)c(-c2ccco2)nc2ccccc21 (centres undefined)	inactive
O=C(NC1CCCCC1)C(c1ccccc1)n1c(=O)c(-c2ccco2)nc2ccccc21 (centres undefined)	1.94 µM
CN(C)CCCN(C(=O)CCc1ccccc1)c1nc2ccc(Br)cc2s1	inactive
Cc1oc2c(c1C(=O)c1ccc(Cl)cc1)C(=O)C(=O)c1ccccc1-2	4.38 µM
CC1CCN(S(=O)(=O)c2ccc(NC(=O)Cc3ccccc3)cc2)CC1	5.73 µM
CC1=CC(C)(C)Nc2ccc(OC(=O)CN3C(=O)c4cccc5cccc(c45)C3=O)cc21	inactive
FC(F)(F)c1cccc(NC(=S)N(CCCN2CCCC2)Cc2cccn2Cc2ccc(Cl)cc2)c1	> 13.3 µM (inactive)
Cc1cccc(C)c1NC(=O)C(c1ccc(-c2ccccc2)cc1)n1c(=O)c(-c2ccco2)nc2ccccc21 (centres undefined)	2.64 µM
CCCCCNC(=O)C(c1ccc(C#N)cc1)n1c(=O)c(-c2ccco2)nc2ccccc21 (centres undefined)	6.63 µM
CC(=O)Oc1c(Cl)c(N2CCOCC2)c(OC(C)=O)c2ccccc12	8.04 µM
CC1=CC(C)(C)Nc2ccc(OC(=O)C(C)N3C(=O)c4ccccc4C3=O)cc21 (centres undefined)	3.65 µM
CC(C)c1nnc(NC(=O)c2nc(S(=O)(=O)Cc3ccc(F)cc3)ncc2Cl)s1	3.45 µM

Structure (SMILES)	IC50
COc1ccc(OCc2cn(CC(=O)c3ccc(O)cc3)nn2)cc1	5.67 µM
O=C1C(=O)c2c(C(=O)c3ccccc3)coc2-c2ccccc21	5.97 µM
Cc1ccc(S(=O)(=O)N2C[C@H]3n4c(=O)ccc(=O)n4C[C@H](OC(=O)Nc4cccs4)[C@@]3(O)C2)cc1	8.68 µM
COCCNC(=O)/C(C#N)=C/c1cccc(/C=C(\C#N)C(=O)NCCOC)c1	1.09 µM
O=c1c(-c2ccco2)nc2ccccc2n1C(CCc1ccccc1)c1nc2ccccc2[nH]1 (centres undefined)	5.14 µM
COc1ccc(C(C(=O)NCc2ccccc2)n2c(=O)c(-c3ccco3)nc3ccccc32)cc1 (centres undefined)	5.37 µM
Cc1cccc(C)c1NC(=O)C(c1ccncc1)n1c(=O)c(-c2ccco2)nc2ccccc21 (centres undefined)	inactive
CCCCCNC(=O)C(c1ccc(OC)cc1)n1c(=O)c(-c2ccco2)nc2ccccc21 (centres undefined)	3.4 µM
Cc1ccc(O)c(C(=O)/C=C/c2ccc3c(c2)OCCCO3)c1	4.93 µM
Cc1cccc(C)c1OCc1cn(CC(=O)c2ccc(O)cc2)nn1	5.07 µM
Oc1ccc2sc(-c3ccccc3O)c(-c3ccc(OCCN4CCCCC4)cc3)c2c1	inactive
Cc1ccc(O)c(C(=O)C=Cc2ccccc2)c1	2.61 µM
COc1ccc(NC(=O)C(c2ccc(C#N)cc2)n2c(=O)c(-c3ccco3)nc3ccccc32)cc1 (centres undefined)	inactive
CC(=O)C1=C(c2cccc([N+](=O)[O-])c2)N(C(C)=O)n2c(C)nnc2S1	4.3 µM
Cc1cccc(C)c1NC(=O)C(c1ccc(C#N)cc1)n1c(=O)c(-c2ccco2)nc2ccccc21 (centres undefined)	3.4 µM
CC1Sc2ccc(S(=O)(=O)N3CCC(C(=O)NCc4ccc(Cl)cc4)CC3)cc2NC1=O (centres undefined)	inactive
CCCCCNC(=O)C(C1CC1)n1c(=O)c(-c2ccco2)nc2ccccc21 (centres undefined)	9.99 µM
O=c1[nH]c(C2CCN(S(=O)(=O)c3ccc(S(=O)(=O)NC4CC4)cc3)CC2)nc2c1nnn2Cc1ccc(F)cc1	2.39 µM
CCc1nnc(NC(=O)c2nc(S(=O)(=O)Cc3ccccc3)ncc2Cl)s1	5.18 µM
CCCCCNC(=O)C(c1ccccc1F)n1c(=O)c(-c2ccco2)nc2ccccc21 (centres undefined)	2.39 µM
CCCCOC(=O)Nc1cc(C(=O)OC)ccc1C(=O)OC	4.5 µM
COc1cc2c(cc1OC)C(C)N(CCc1ccc(Cl)cc1)CC2 (centres undefined)	5.37 µM
CN1CCC(=C2c3ccccc3CC(=O)c3sccc32)CC1	5.57 µM and 5.43 µM
CC(c1nc2ccccc2[nH]1)n1c(=O)c(-c2ccco2)nc2ccccc21 (centres undefined)	6.21 µM
CC1=CC(C)(C)Nc2ccc(OC(=O)CN3C(=O)CCC3=O)cc21	3.21 µM

Structure (SMILES)	IC50
CN(C)CCOc1ccc(-c2c(-c3ccccc3)sc3ccccc23)cc1	inactive
Cc1ccc(C(=O)/C=C/c2cc(Br)cc(Br)c2O)o1	inactive
CC(C)(C)NC(=O)C(c1ccncc1)n1c(=O)c(-c2ccco2)nc2ccccc21 (centres undefined)	4.21 µM
Cc1ccc(/C(O)=C2/C(=O)C(=O)OC2c2ccc(Cl)cc2)cc1 (centres undefined)	inactive
CN1CCC[C@@H]1CCO[C@](C)(c1ccccc1)c1ccc(Cl)cc1	6.93 µM
O=C(/C(=C/O)N=Nc1ccc(Cl)cc1)c1ccncc1	9.32 µM
O=C(NC1CCCCC1)C(C1CC1)n1c(=O)c(-c2ccco2)nc2ccccc21 (centres undefined)	5.09 µM
CC(C)(C)NC(=O)C(c1ccc(C#N)cc1)n1c(=O)c(-c2ccco2)nc2ccccc21 (centres undefined)	2.52 µM
Cc1ccc(C)c(/C=C/C(=O)c2ccccc(=O)c2O)c1	5.69 µM
c1ccc(CCC2=NCCn3cccc32)cc1	8.18 µM
C=C1C(=O)O[C@H]2C[C@H]1[C@@H](OC(C)=O)C/C(C)=C/CC/C(C)=C\CC[C@]2(C)O	1.6 µM
O=C1NC(=O)N(Cc2ccccc2)C(=O)/C1=C\C=C\c1ccco1	2.53 µM
CC(=O)Oc1c(Br)cc(N(C(C)=O)S(=O)(=O)c2ccccc2)c2ccccc12	inactive
CCCCCNC(=O)C(c1cc2ccccc2o1)n1c(=O)c(-c2ccco2)nc2ccccc21 (centres undefined)	3.08 µM
COC(=O)c1cc(=O)n(Cc2ccco2)c(=Nc2ccc(F)cc2)s1	3.58 µM
O=C(Nc1ccc2c(c1)OCCO2)C(c1ccnc2ccccc12)n1c(=O)c(-c2ccco2)nc2ccccc21 (centres undefined)	inactive
Cc1cc(C)c2nc(NNC(=O)c3ccc(S(=O)(=O)N4CCCC(C)C4)cc3)sc2c1 (centres undefined)	1.88 µM
C=C[C@]1(C)C[C@@H](OC(=O)CSCCN(CC)CC)[C@]2(C)C(C)CC[C@]3(CCC(=O)[C@H]32)[C@@H](C)[C@@H]1O (some centres undefined)	4.62 µM
COc1cc(C(C)=O)ccc1OCc1cn(CC(=O)c2ccc(O)cc2)nn1	5.81 µM
O=c1[nH]c(C2CCN(S(=O)(=O)c3ccc(F)cc3)CC2)nc2c1nnn2Cc1ccc2c(c1)OCCO2	8.33 µM
COc1ccc(C(C(=O)Nc2ccc3c(c2)OCCO3)n2c(=O)c(-c3ccco3)nc3ccccc32)cc1 (centres undefined)	8.54 µM
O=C1CC(c2ccc(Cl)cc2)Oc2ccc(Cl)cc21 (centres undefined)	3.18 µM
O=CC1=C(c2ccccc2)Oc2ccccc2O1	3.02 µM
O=C(Nc1ccc(Cl)cc1)/C(=C/c1cccc(O)c1)c1nc2ccccc2s1	1.71 µM
CC(=O)Oc1ccc(C23c4ccccc4C2(OC(C)=O)c2cc(OC(C)=O)ccc23)cc1 (centres undefined)	1.33 µM

Structure (SMILES)	IC50
CCSc1nnc(NC(=O)c2nc(S(=O)(=O)Cc3ccc(F)cc3)ncc2Cl)s1	3.78 µM
O=C(NCc1ccccc1)C(c1ccccc1)n1c(=O)c(-c2ccco2)nc2ccccc21 (centres undefined)	4.77 µM
CCCCCNC(=O)C(c1ccc(C(F)(F)F)cc1)n1c(=O)c(-c2ccco2)nc2ccccc21 (centres undefined)	3.44 µM
C#CCN(C[C@@H]1[C@@H](OC(=O)NCC2CCCCC2)[C@@H](OC(=O)NCC2CCCCC2)Cn2c(=O)ccc(=O)n21)S(=O)(=O)c1ccc(C)cc1	4.5 µM
O=C(NC1CCCCC1)C(c1ccccc1F)n1c(=O)c(-c2ccco2)nc2ccccc21 (centres undefined)	4.15 µM
CCCCC(=O)NC(c1cccc([N+](=O)[O-])c1)c1ccc2cccnc2c1O (centres undefined)	inactive
CCN(CC)CCOc1ccc(/C(=C(\Cl)c2ccccc2)c2ccccc2)cc1	2.39 µM
CC(=O)OCC1=C(C(=O)O)N2C(=O)C(NC(=O)CCn3nc(C(F)(F)F)c(Br)c3C3CC3)C2SC1 (centres undefined)	inactive
CCN(CC)CCNC(=O)c1ccc(NC(=O)c2cn(-c3ccccc3)nc2-c2cccs2)cc1	inactive
O=C1NC(=S)NC(=O)C12C(c1ccccc1)NC(=S)NC2c1ccccc1 (centres undefined)	3.88 µM
Cc1cccc(C)c1NC(=O)C(c1ccccc1)n1c(=O)c(-c2ccco2)nc2ccccc21 (centres undefined)	7.69 µM
COc1ccc(-c2cc(N)n(S(=O)(=O)c3c(F)c(F)c(F)c(F)c3F)n2)cc1OC	inactive
CC(C)(C)NC(=O)C(c1ccccc1F)n1c(=O)c(-c2ccco2)nc2ccccc21 (centres undefined)	4.2 µM
CC(C)c1ccc(N2C=Nc3ccc(C(C)C)cc3C2)cc1	7.82 µM
COc1ccc(NC(=O)C(c2ccc(OC)cc2)n2c(=O)c(-c3ccco3)nc3ccccc32)cc1 (centres undefined)	inactive
O=C(NCc1ccccc1)C(C1CC1)n1c(=O)c(-c2ccco2)nc2ccccc21 (centres undefined)	inactive
CCCCn1c(SCC(=O)NCc2ccco2)nnc1-c1ccoc1C	6.5 µM
Cc1ccc(/C=C/C(=O)c2cc(Br)ccc2OC(=O)c2ccco2)cc1	0.68 µM
CCC(C(=O)OCCN(CC)CC)c1ccccc1 (centres undefined)	2.67 µM
N#Cc1ccccc1OCc1cn(CC(=O)c2ccc(O)cc2)nn1	5.91 µM
Cc1ccc(C(=O)c2coc3c2C(=O)C(=O)c2ccccc2-3)cc1	6.15 µM
Cc1nnc(NC(=O)c2nc(S(=O)(=O)Cc3ccccc3C)ncc2Cl)s1	5.92 µM
O=C(/C=C/c1ccc(NC(=O)c2ccccc2-c2ccccc2C(=O)O)cc1)c1ccccc1	8.25 µM
C#CCN(C[C@@H]1[C@@H](OC(=O)NCCCCCC)[C@@H](OC(=O)NCCCCCC)Cn2c(=O)ccc(=O)n21)S(=O)(=O)c1ccc(C)cc1	6.47 µM

From PubChem BioAssay AID651733 (The Scripps Research Institute Molecular Screening Center, 2012)
